Reference: patent publication US20230372364A1, “METHOD OF TREATING GABA MEDIATED DISORDERS” (Eliem Therapeutics (UK) Ltd, priority 2020, published 2023)
Several values for one entry are separate records, joined by “and”; a condition that tells them apart may be missing. Identical values can stand only once. Entries after “also recorded” stand apart in the source; their conditions may differ. Marks after values point to notes of the source that are not given here.

How the values were obtained:
[1] = Pharmacokinetic parameters in preclinical rodent studies; assay type: in vivo; set-up: Oral BA / ½ life: unit not given here
Procedure: The pharmacokinetic parameters of CV-10155 in preclinical studies on rodent models of seizure, anxiety, depression and EEG biomarker were analyzed.

human subjects = experiment: 60 mg once daily for seven days, adverse events in humans (MAD); assay type: in vivo; conditions: for AE Sleepiness (Nervous system disorders): listed three times in the table; for AE Headache (Nervous system disorders): listed twice in the table
Procedure: The effects of CV-10155 in relation to administration at different times of the day and states of feeding were analyzed in humans. Subjects were given 60 mg CV-10155 orally once per day for seven consecutive days, and plasma concentrations were measured at various time points. Doses were administered either in the morning to fasted subjects or in the evening to fed subjects.
Adverse events observed following administration of a single dose of CV-10155 in the evening in a fed state are summarized on Table 6.
A comparison of adverse events observed following administration to fasted subjects in the morning and to fed subjects in the evening is provided in Table 7.
The tolerability of the neurosteroids CV-10155, Sage-217, and Praxis-114 in human subjects were compared. The results from subjects that received 45 mg Praxis-114 in the evening, 60 mg Praxis-114 in the evening, 80 mg Praxis-114 in the evening, or 60 mg CV-10155 in the evening are provided in Table 8, and the results form subjects that received 30 mg Sage-217 or 20 mg Sage-217 are provided in Table 9.

CYP2C8 = molecular target: T1, CYP2C8 (Homo sapiens, UniProt P10632); experiment: Repaglinide drug-drug interaction in humans; assay type: in vivo; conditions: repaglinide exposure after 14 day repeat doses
T1 construct: from tissue; host or cells: human volunteers in vivo (endogenous, mainly hepatic, enzyme: own knowledge)
T1 sequence (P10632 1-490): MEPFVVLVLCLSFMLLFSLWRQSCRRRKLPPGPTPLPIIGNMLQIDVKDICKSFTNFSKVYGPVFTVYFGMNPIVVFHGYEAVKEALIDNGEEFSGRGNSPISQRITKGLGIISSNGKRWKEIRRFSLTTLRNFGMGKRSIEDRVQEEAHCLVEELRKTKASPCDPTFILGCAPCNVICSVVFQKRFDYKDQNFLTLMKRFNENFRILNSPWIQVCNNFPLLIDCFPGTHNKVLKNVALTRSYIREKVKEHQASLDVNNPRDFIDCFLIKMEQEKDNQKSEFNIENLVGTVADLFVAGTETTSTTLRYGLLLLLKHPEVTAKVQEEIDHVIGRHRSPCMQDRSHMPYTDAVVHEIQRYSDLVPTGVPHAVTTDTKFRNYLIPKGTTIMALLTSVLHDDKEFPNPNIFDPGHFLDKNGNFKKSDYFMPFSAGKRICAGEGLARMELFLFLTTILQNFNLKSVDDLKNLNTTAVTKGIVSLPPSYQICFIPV

[2] = tested on: rodent models of seizure, anxiety, depression and EEG biomarker; experiment: Preclinical models of depression, anxiety, seizure and EEG (overall effective dose); assay type: in vivo
[3] = In vitro genetic toxicology studies; conditions: two in vitro studies
[4] = tested on: cardiovascular or respiratory function; experiment: In vivo safety pharmacology studies
Procedure: (§1) The no-observed-adverse-effect-level doses were 7.5/mg/kg/day and 6 mg/kg/day in rats and dogs, respectively.

5-HT2A receptor = 5-HT2A receptor (Homo sapiens, UniProt P28223); experiment: Activity at the 5-HT2A receptor; conditions: previously shown
5-HT2A receptor, sequence (P28223 whole entry, looked up): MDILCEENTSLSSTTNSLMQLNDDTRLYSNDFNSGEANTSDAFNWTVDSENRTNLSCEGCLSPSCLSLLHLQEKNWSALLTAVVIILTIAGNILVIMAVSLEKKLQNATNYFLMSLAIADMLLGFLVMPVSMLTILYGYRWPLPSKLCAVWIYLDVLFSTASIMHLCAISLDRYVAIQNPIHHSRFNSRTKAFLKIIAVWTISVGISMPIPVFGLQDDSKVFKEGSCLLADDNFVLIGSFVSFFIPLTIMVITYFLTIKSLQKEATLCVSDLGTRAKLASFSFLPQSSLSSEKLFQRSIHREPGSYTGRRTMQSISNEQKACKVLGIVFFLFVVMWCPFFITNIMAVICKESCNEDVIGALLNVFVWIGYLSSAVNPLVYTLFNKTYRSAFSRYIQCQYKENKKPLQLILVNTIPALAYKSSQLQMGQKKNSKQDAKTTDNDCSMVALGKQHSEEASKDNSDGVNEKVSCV
Source text: The compound of Formula (I) is believed to have binding affinity at the GABA-gated Cl-channel, the kappa opioid receptor, the 5-HT2A receptor, and the androgen receptor. The compound of Formula (I) has previously shown activity at all 18 GABAA receptor channels and the kappa opioid receptor. The compound of Formula (I) had previously shown no activity at the 5-HT2A receptor. Activity at the androgen receptor is has not yet been well studied.

dogs = experiment: Repeat-dose toxicity up to four weeks, dogs; assay type: in vivo, dog; conditions: 28-day repeat dose
Procedure: as §1
Justification for Dose—Based on the nonclinical toxicology data, there is not an unreasonable risk of adverse effects. Using the FDA guidance “Estimating the Maximum Safe Starting Dose in Initial Clinical Trials for Therapeutics in Adult Healthy Volunteers” (July, 2005), the calculated human equivalent dose would be 1/2 mg/kg/day or 3/24 mg/kg/day, respectively, based on the 28-day rat no-observed-adverse-effect-level dose of 7.5 mg/kg/day or the 28-day dog no-observed-adverse-effect-level dose of 6 mg/kg/day, respectively. For both species the no-observed-adverse-effect-level dose was the highest dose tested. For a 60 kg participant, this would result in a maximum safe starting dose of (human equivalent dose/10) of 7.2 mg/day or 19/6 mg/day. The starting doses in this Phase 1 study are 5 mg, equivalent to […] for a 60 kg participant. […] These anticipated Cmax and AUC values are ˜80- and 50-fold lower, respectively, than that observed at the no-observed-adverse-effect-level dose in dogs.

[5] = 1 mg/kg (minimal effective dose), male and female subjects
[6] = 3 mg/kg, male and female subjects
[7] = 10 mg/kg, male and female subjects
[8] = 60 mg, evening, fed state, N = 9
[9] = 60 mg, morning, fasted state, N = 9
[10] = HV, 60 mg evening dosing, n = 12
[11] = human, 60 mg, evening, fed state, one line per subject and event

For `C[C@@]1(O)CC[C@@]2(C)[C@@H](CC[C@@H]3[C@@H]2CC[C@]2(C)[C@@H](C(=O)Cn4cc(C#N)cn4)CC[C@@H]32)C1` [CV-10155, 1-[2-[(3R,5S,8R,9S,10S,13S,14S,17S)-3-hydroxy-3,10,13-trimethyl-1,2,4,5,6,7,8,9,11,12,14,15,16,17-tetradecahydrocyclopenta[a]phenanthren-17-yl]-2-oxoethyl]pyrazole-4-carbonitrile], the AUC0-inf [1, 5] was 508-1301, the Cmax [1, 5] was 84.4-128 and the “Oral BA” value [1, 5] was 58.6-92.4. The Tmax [1, 5] was 1.5-2^, the ½ life [1, 5] was 3.66-6.82 and the “Oral BA” value ([1]; 2 mg/kg, only male subjects) was 47.2. The Tmax ([1]; 2 mg/kg, only male subjects, in h) was 1.7, the Cmax ([1]; 2 mg/kg, only male subjects, in ng/mL) was 224 and the AUC0-inf ([1]; 2 mg/kg, only male subjects, in ng·h/mL) was 1319. The AUC0-inf [1, 6] was 1378-3899, the Cmax [1, 6] was 270-440 and the “Oral BA” value [1, 6] was 53-92.3. The ½ life [1, 6] was 2.84-4.96, the Tmax ([1]; 3 mg/kg, male and female subjects, in h) was 1.25-2.50 and the “Oral BA” value ([1]; 5 mg/kg, only male subjects) was 58.1. It also gave a ½ life ([1]; 5 mg/kg, only male subjects) of 4.19, a Tmax ([1]; 5 mg/kg, only male subjects, in h) of 0.83 and a Cmax ([1]; 5 mg/kg, only male subjects, in ng/mL) of 499. For the same compound, the AUC0-inf ([1]; 5 mg/kg, only male subjects, in ng·h/mL) was 2610, the AUC0-inf [1, 7] was 6848-14667 and the “Oral BA” value [1, 7] was 79.7-100. For the same compound, the ½ life [1, 7] was 3.23-4.80, the Tmax ([1]; 10 mg/kg, male and female subjects, in h) was 1.25-2.25 and the Cmax ([1]; 10 mg/kg, male and female subjects, in ng/mL) was 1165. The “AE Back pain (Musculoskeletal and connective tissue disorders)” value (human subjects; [8]) was 1 #, the “AE Bloating (Gastrointestinal disorders)” value (human subjects; [8]) was 1 # and the “AE Dizziness (Nervous system disorders)” value (human subjects; [8]) was 1 #. The “AE Sleepiness (Nervous system disorders)” value (human subjects; [8]) was 1 #, the “AE Headache (Nervous system disorders)” value (human subjects; [8]) was 2 # and the “AE Dizziness (Nervous system disorders)” value (human subjects; [9]) was 1 #. For the same compound, the “AE Feeling sleepy (Nervous system disorders)” value (human subjects; [9]) was 1 #, the “AE Feeling tired (General disorders and administration site conditions)” value (human subjects; [9]) was 2 # and the “AE Tiredness (General disorders and administration site conditions)” value (human subjects; [9]) was 3 #. For the same compound, the “AE Sleepiness (Nervous system disorders)” value (human subjects; [9]) was 9 #, the “AE Headache (Nervous system disorders)” value (human subjects; [9]) was 2 # and the “Dizziness, AEs % of subjects” value (human subjects; [10]) was 16.7%. For the same compound, the “Headache, AEs % of subjects” value (human subjects; [10]) was 8.3%, the “Somnolence, AEs % of subjects” value (human subjects; [10]) was 8.3% and the “AE (per subject)” value (human subjects; [11]) was “Dizziness; also recorded: Headache; also recorded: Somnolence; also recorded: Back pain; also recorded: Abdominal”. The AE duration (human subjects; [11]) was 20.50 h and 13.00 h and 14.50 h and 10.62 h and 39.25 h and 13.25 h and 06.50 h, the “AE onset from dose” value (human subjects; [11]) was “pre-dose” and the AE severity (human subjects; [11]) was “Mild (6×) and Moderate”. The “adverse effects that interfere with sleeping” value (human subjects; human, oral administration in the evening to fed subjects) was “does not produce adverse effects that interfere with sleeping”, the “DDI inhibitory effect at CYP2C8 level” value (CYP2C8) was “no or minimal DDI inhibitory effect” and the “dose from which robust efficacy was observed” value ([2]; in most models) was no less than 3 mg/kg. The “minimal effective dose (MED)” value ([2]; preclinical models of depression, anxiety, seizure) was 1 mg/kg, the genetic toxicology findings [3] was “no positive findings” and the “effect on cardiovascular or respiratory function” value [4] was “does not affect”. For the same compound, the “activity at the 5-HT2A receptor” value (5-HT2A receptor) was “no activity” and the no-observed-adverse-effect-level dose (dogs) was 6 mg/kg/day.
